Measurements from US4725676A, “5-(3,5-disubstituted phenylazo)-2-hydroxybenzene-acetic acids and salts and lactones thereof having a potentially inhibitory effect on 15-hydroxy-prostaglandin dehydrogenase” (Pharmacia AB, priority 1984, dated 1988).

What was measured:
Format in all cases: biochemical
PGDH from rat colon = molecular target: T1, PGDH from rat colon (Rattus norvegicus, UniProt O08699); experiment: Inhibition of PGDH from rat colon; conditions: similarly tested, read-out: 50% PGDH inhibition at
T1 construct: PGDH from rat colon; from tissue; host or cells: rat colon
T1 sequence (O08699 1-266): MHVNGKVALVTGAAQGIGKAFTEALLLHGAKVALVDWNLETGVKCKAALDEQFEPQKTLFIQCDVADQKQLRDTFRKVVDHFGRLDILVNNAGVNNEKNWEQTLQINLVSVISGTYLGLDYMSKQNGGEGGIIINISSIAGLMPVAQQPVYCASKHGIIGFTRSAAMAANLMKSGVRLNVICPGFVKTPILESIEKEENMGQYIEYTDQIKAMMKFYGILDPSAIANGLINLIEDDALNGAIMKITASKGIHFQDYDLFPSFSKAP
Description: (§1) Radioactively labelled prostaglandin PGF 2 was incubated with the enzyme as according to Berry, C. N. et al., Biochem. Pharmacol. 1983, Vol. 32, p. 2863.
(§2) The compound of Example 2 was added in various concentrations, and the inhibition was measured as stated above.
When similarly tested against PGDH from rat colon the compound gave 50% PGDH inhibition at 56 nM. […] It should be noted that (V) is the strongest inhibitor of this type known in the literature.

cyclooxygenase = experiment: Inhibition of cyclooxygenase; conditions: at concentrations of from 10 to 1,000 nM
human PGDH = molecular target: T2, human PGDH (Homo sapiens, UniProt P15428); experiment: Inhibitory effect on human PGDH isolated from placenta; conditions: radioactively labelled prostaglandin PGF 2, read-out: 50% PGDH inhibition at a concentration of
T2 construct: human PGDH isolated from placenta; from tissue; host or cells: human placenta
T2 sequence (P15428 1-266): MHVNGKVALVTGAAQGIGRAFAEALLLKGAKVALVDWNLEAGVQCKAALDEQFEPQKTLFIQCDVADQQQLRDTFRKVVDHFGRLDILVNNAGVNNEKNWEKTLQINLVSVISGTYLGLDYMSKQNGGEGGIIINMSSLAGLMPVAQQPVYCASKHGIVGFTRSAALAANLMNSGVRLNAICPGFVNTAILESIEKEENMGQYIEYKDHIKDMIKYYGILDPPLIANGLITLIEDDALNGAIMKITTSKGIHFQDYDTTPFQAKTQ
Description: The compound of Example 2 was studied in respect of its inhibitory effect on human PGDH isolated from placenta.
as §1, §2

| IC50 (PGDH from rat colon) [nM] | inhibition of cyclooxygenase detected (cyclooxygenase) | IC50 (human PGDH) [nM] | Compound |
| --- | --- | --- | --- |
| 56 | No inhibition whatever | 28 | COC(=O)c1cc(N=Nc2ccc(O)c(CC(=O)O)c2)cc(C(=O)OC)c1 [Example 2, 5-(3,5-bis-(methoxycarbonyl)-phenylazo)-2-hydroxy-phenylacetic acid] |
| – | – | 290 | CCOC(=O)c1ccc(N=Nc2ccc(O)c(CC(=O)O)c2)cc1 [V, reference compound] |
